Laboratory results reported in ChEMBL document CHEMBL1158941, “Diterpenes from the Pohnpeian marine sponge Chelonaplysilla sp” (J Nat Prod, 1991).
The source made the active and inactive calls. No cut-off for these calls is given here.

Columns and labels:
[1] = test system: Bacillus subtilis; assay: Antimicrobial activity against Bacillus subtilis at 5 ug/disk; format: functional, organism-based
[2] = test system: Bacillus subtilis; assay: Antimicrobial activity against Bacillus subtilis at 50 ug/disk; format: functional, organism-based

Compound: C=C([C@@H]1[C@@H]2OC(=O)C[C@H]1[C@H](OC(C)=O)O2)[C@H]1CC[C@H]2C(C)(C)CCCC(=C)[C@]12C
- Activity [1]: Active

Compound: C=C1CCCC(C)(C)[C@@H]2CC[C@@](C)([C@@H]3[C@H]4CC(=O)O[C@H]4O[C@H]3O)[C@H]12
- Activity [2]: Active

Compound: C=C1CCCC(C)(C)[C@@H]2CC[C@@](C)([C@@H]3[C@@H]4OC(=O)C[C@H]3[C@H](OC(C)=O)O4)[C@H]12
- Activity [1]: Active
